“And” between values parts separate entries of the source, which are not always exact repeats. Identical values can stand only once.

wild-type Epidermal Growth Factor Receptor (EGFR), sequence (P00533 669-1210): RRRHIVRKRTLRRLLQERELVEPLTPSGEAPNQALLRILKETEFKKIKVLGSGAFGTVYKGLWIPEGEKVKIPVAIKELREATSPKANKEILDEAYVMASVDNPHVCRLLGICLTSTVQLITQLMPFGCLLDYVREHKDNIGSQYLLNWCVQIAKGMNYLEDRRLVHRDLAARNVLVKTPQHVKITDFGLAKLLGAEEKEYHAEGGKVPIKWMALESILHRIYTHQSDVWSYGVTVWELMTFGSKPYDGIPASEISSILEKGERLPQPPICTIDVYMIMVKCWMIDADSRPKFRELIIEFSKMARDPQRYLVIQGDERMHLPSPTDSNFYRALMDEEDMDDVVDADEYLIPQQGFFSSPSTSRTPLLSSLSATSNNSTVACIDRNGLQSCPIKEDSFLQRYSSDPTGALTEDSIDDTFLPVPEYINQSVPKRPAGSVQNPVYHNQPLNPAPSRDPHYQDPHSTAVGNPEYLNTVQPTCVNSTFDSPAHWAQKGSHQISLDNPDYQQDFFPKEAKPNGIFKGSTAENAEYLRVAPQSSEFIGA

In the first assay the target is wild-type Epidermal Growth Factor Receptor (EGFR) (Homo sapiens (Human), UniProt P00533). In words: WT-EGFR Kinase Assay (TR-FRET, 2 mM ATP). It counts as biochemical. The conditions noted are these: EGFR Wildtyp 2 mM ATP IC50 [mol/l] (median), median or individual measurements. The text has this:
Inhibitory activity of compounds of the present invention against wild-type Epidermal Growth Factor Receptor (EGFR) was quantified employing the TR-FRET based EGFR assay as described in the following paragraphs.
Recombinant fusion protein of N-terminal Glutathion-S-Transferase (GST) and a fragment of human EGFR (amino acids R669 to A1210), expressed in Sf9 insect cells and purified via affinity chromatography using Glutathion Sepharose as described above, was used as kinase. As substrate for the kinase reaction the biotinylated peptide biotin-Ahx-[…] (C-terminus in amide form) was used which can be purchased e.g. form the company Biosynthan GmbH (Berlin-Buch, Germany).
For the assay 50 nl of a 100 fold concentrated solution of the test compound in DMSO was pipetted into either a black low volume 384 well microtiter plate or a black 1536 well microtiter plate (both Greiner Bio-One, Frickenhausen, Germany), 2 μL of a solution of EGFR in aqueous assay buffer [50 mM Hepes pH 7.0, 10 mM MgCl2, 1 mM dithiothreitol, 0.5 mM EGTA, 0.3 mM activated sodium ortho-vanadate, 0.005% (w/v) bovine serum albumin, 0.005% (v/v) Tween-20] were added and the mixture was incubated for 15 min at 22° C. to allow pre-binding of the test compounds to the enzyme before the start of the kinase reaction. […] The concentration of EGFR was adjusted depending of the activity of the enzyme lot and was chosen appropriate to have the assay in the linear range, typical concentration was […]. The reaction was stopped by the addition of 3 μL of a solution of HTRF detection reagents (83.3 nM streptavidine-XL665 [Cisbio Bioassays, Codolet, France] and 1.67 nM PT66-Tb-Cryptate, a terbium-cryptate labelled anti-phospho-tyrosine antibody from Cisbio Bioassays [instead of the PT66-Tb-cryptate PT66-Eu-Chelate from Perkin Elmer can also be used]) in an aqueous EDTA-solution (133.3 mM EDTA, 0.2% (w/v) bovine serum albumin in 50 mM HEPES pH 7.5).
The resulting mixture was incubated 1 h at 22° C. to allow the binding of the biotinylated phosphorylated peptide to the streptavidine-XL665 and the PT66-Tb-Cryptate. Subsequently the amount of phosphorylated substrate was evaluated by measurement of the resonance energy transfer from the PT66-Tb-Cryptate to the streptavidine-XL665. Therefore, the fluorescence emissions at 620 nm and 665 nm after excitation at 337 nm were measured in a HTRF reader, e.g. a Pherastar (BMG Labtechnologies, Offenburg, Germany) or a Viewlux (Perkin-Elmer). The ratio of the emissions at 665 nm and at 622 nm was taken as the measure for the amount of phosphorylated substrate.
`Cn1cc(CC(F)(F)F)c2[nH]c(-c3ccnc(NC(=O)C(CC(F)F)c4ccc(F)cc4)c3)c(-c3ccc(F)cc3)c2c1=O` (single isomer, unassigned) [Example 028, 4,4-difluoro-2-(4-fluorophenyl)-N-{4-[3-(4-fluorophenyl)-5-methyl-4-oxo-7-(2,2,2-trifluoroethyl)-4,5-dihydro-1H-pyrrolo[3,2-c]pyridin-2-yl]pyridin-2-yl}butanamide] yielded an IC50 above 5.71 µM.
The same measure, in the same setting: with `Cn1ccc2[nH]c(-c3ccnc(NC(=O)C(CC(F)F)c4ccc(F)cc4)c3)c(-c3ccccc3)c2c1=O` (single isomer, unassigned) [Example 008, 4,4-difluoro-2-(4-fluorophenyl)-N-[4-(5-methyl-4-oxo-3-phenyl-4,5-dihydro-1H-pyrrolo[3,2-c]pyridin-2-yl)pyridin-2-yl]butanamide] the figure was 7.82 µM and 7.83 µM and > 20 µM (2×); with `Cn1cc(CC(F)(F)F)c2[nH]c(-c3ccnc(NC(=O)C(CC(F)F)c4ccc(F)cc4)c3)c(-c3ccc(F)cc3)c2c1=O` (racemic) [Example 026, 4,4-difluoro-2-(4-fluorophenyl)-N-{4-[3-(4-fluorophenyl)-5-methyl-4-oxo-7-(2,2,2-trifluoroethyl)-4,5-dihydro-1H-pyrrolo[3,2-c]pyridin-2-yl]pyridin-2-yl}butanamide], above 20 µM; with `Cn1ccc2[nH]c(-c3ccnc(NC(=O)C(CC(F)F)c4ccc(F)cc4)c3)c(-c3ccccc3)c2c1=O` (racemic) [Example 006, 4,4-difluoro-2-(4-fluorophenyl)-N-[4-(5-methyl-4-oxo-3-phenyl-4,5-dihydro-1H-pyrrolo[3,2-c]pyridin-2-yl)pyridin-2-yl]butanamide], above 20 µM.
`CN1C(=O)c2c([nH]c(-c3ccnc(NC(=O)C(CC(F)F)c4ccc(F)cc4)c3)c2-c2ccccc2)CC12CCC2` (racemic) [Example 049, 4,4-difluoro-2-(4-fluorophenyl)-N-[4-(5′-methyl-4′-oxo-3′-phenyl-1′,4′,5′,7′-tetrahydrospiro[cyclobutane-1,6′-pyrrolo[3,2-c]pyridin]-2′-yl)pyridin-2-yl]butanamide] came in with an IC50 above 20 µM.
For `CC(C(=O)Nc1cc(-c2[nH]c3c(CC4CC4)cn(C)c(=O)c3c2-c2ccccc2)ccn1)c1ccc(F)cc1` (racemic) [Example 058, N-{4-[7-(cyclopropylmethyl)-5-methyl-4-oxo-3-phenyl-4,5-dihydro-1H-pyrrolo[3,2-c]pyridin-2-yl]pyridin-2-yl}-2-(4-fluorophenyl)propanamide], the IC50 is above 20 µM.
Still for that read-out and setting: with `Cc1cn(C)c(=O)c2c(-c3ccccc3)c(-c3ccnc(NC(=O)C(CC(F)F)c4ccc(F)cc4)c3)[nH]c12` (racemic) [Example 040, N-[4-(5,7-dimethyl-4-oxo-3-phenyl-4,5-dihydro-1H-pyrrolo[3,2-c]pyridin-2-yl)pyridin-2-yl]-4,4-difluoro-2-(4-fluorophenyl)butanamide] the figure was above 20 µM; with `CC1(C)CNC(=O)c2c1[nH]c(-c1ccnc(NC(=O)C(CC(F)F)c3ccc(F)cc3)c1)c2-c1ccccc1` (racemic) [Example 043, N-[4-(7,7-dimethyl-4-oxo-3-phenyl-4,5,6,7-tetrahydro-1H-pyrrolo[3,2-c]pyridin-2-yl)pyridin-2-yl]-4,4-difluoro-2-(4-fluorophenyl)butanamide], above 20 µM.
Compound `Cc1cn(C)c(=O)c2c(-c3ccc(F)cc3)c(-c3ccnc(NC(=O)C(C)c4ccc(F)cc4)c3)[nH]c12` (racemic) [Example 030, 2-(4-fluorophenyl)-N-{4-[3-(4-fluorophenyl)-5,7-dimethyl-4-oxo-4,5-dihydro-1H-pyrrolo[3,2-c]pyridin-2-yl]pyridin-2-yl}propanamide] gave an IC50 above 20 µM.
`CN1C(=O)c2c([nH]c(-c3ccnc(NC(=O)C(CC(F)F)c4ccc(F)cc4)c3)c2-c2ccccc2)CC12CCC2` (single isomer, unassigned; (-)) [Example 050, (-)-4,4-difluoro-2-(4-fluorophenyl)-N-[4-(5′-methyl-4′-oxo-3′-phenyl-1′,4′,5′,7′-tetrahydrospiro-[cyclobutane-1,6′-pyrrolo[3,2-c]pyridin]-2′-yl)pyridin-2-yl]butanamide]: the IC50 turned out to be 11.9 µM.
Same read-out and setting: with `CN1CCc2[nH]c(-c3ccnc(NC(=O)C(CC(F)F)c4ccc(F)cc4)c3)c(-c3cccnc3)c2C1=O` (single isomer, unassigned) [Example 010, 4,4-difluoro-2-(4-fluorophenyl)-N-{4-[5-methyl-4-oxo-3-(pyridin-3-yl)-4,5,6,7-tetrahydro-1H-pyrrolo[3,2-c]pyridin-2-yl]pyridin-2-yl}butanamide] the figure was above 20 µM.
The same measure, in the same setting: with `CC(C(=O)Nc1cc(-c2[nH]c3c(CC(F)(F)F)cn(C)c(=O)c3c2-c2ccc(F)cc2)ccn1)c1ccc(F)cc1` (racemic) [Example 022, 2-(4-fluorophenyl)-N-{4-[3-(4-fluorophenyl)-5-methyl-4-oxo-7-(2,2,2-trifluoroethyl)-4,5-dihydro-1H-pyrrolo[3,2-c]pyridin-2-yl]pyridin-2-yl}propanamide] the figure was above 20 µM; with `CC(C(=O)Nc1cc(-c2[nH]c3c(c2-c2ccccc2)C(=O)NCC3(C)C)ccn1)c1ccc(F)cc1` (single isomer, unassigned) [Example 047, N-[4-(7,7-dimethyl-4-oxo-3-phenyl-4,5,6,7-tetrahydro-1H-pyrrolo[3,2-c]pyridin-2-yl)pyridin-2-yl]-2-(4-fluorophenyl)propanamide], above 20 µM.
Same read-out and setting: with `Cn1cc(CC(F)(F)F)c2[nH]c(-c3ccnc(NC(=O)C(CC(F)F)c4ccc(F)cc4)c3)c(-c3ccccc3)c2c1=O` (single isomer, unassigned; (-)) [Example 019, (-)-4,4-difluoro-2-(4-fluorophenyl)-N-{4-[5-methyl-4-oxo-3-phenyl-7-(2,2,2-trifluoroethyl)-4,5-dihydro-1H-pyrrolo[3,2-c]pyridin-2-yl]pyridin-2-yl}butanamide] the figure was above 20 µM.
Take `Cc1cn(C)c(=O)c2c(-c3ccc(F)cc3)c(-c3ccnc(NC(=O)C(C)c4ccc(F)cc4)c3)[nH]c12` (single isomer, unassigned; (-)) [Example 031, (-)-2-(4-fluorophenyl)-N-{4-[3-(4-fluorophenyl)-5,7-dimethyl-4-oxo-4,5-dihydro-1H-pyrrolo[3,2-c]pyridin-2-yl]pyridin-2-yl}propanamide]: the IC50 was above 20 µM.

The same assay, now with this note: read-out: EGFR Wildtyp 2 mM ATP IC50 [mol/l] (median), median or individual measurements.
For `CC(C(=O)Nc1cc(-c2[nH]c3c(c2-c2ccc(F)cc2)C(=O)N(C)CC3CC2CC2)ccn1)c1ccc(F)cc1` (stereo not drawn) [Example 062], the IC50 is above 5.71 µM.
The same measure, in the same setting: with `Cc1cn(C)c(=O)c2c(-c3ccc(F)cc3)c(-c3ccnc(NC(=O)C(CC(F)F)c4ccc(F)cc4)c3)[nH]c12` (single isomer, unassigned; (+)) [Example 036, (+)-4,4-difluoro-2-(4-fluorophenyl)-N-{4-[3-(4-fluorophenyl)-5,7-dimethyl-4-oxo-4,5-dihydro-1H-pyrrolo[3,2-c]pyridin-2-yl]pyridin-2-yl}butanamide] the figure was above 20 µM; with `Cc1cn(C)c(=O)c2c(-c3ccc(F)cc3)c(-c3ccnc(NC(=O)C(C)c4ccc(F)cc4)c3)[nH]c12` (single isomer, unassigned; (+)) [Example 032, (+)-2-(4-fluorophenyl)-N-{4-[3-(4-fluorophenyl)-5,7-dimethyl-4-oxo-4,5-dihydro-1H-pyrrolo[3,2-c]pyridin-2-yl]pyridin-2-yl}propanamide], above 20 µM.
Take `Cn1cc(CC(F)(F)F)c2[nH]c(-c3ccnc(NC(=O)C(CC(F)F)c4ccc(F)cc4)c3)c(-c3ccccc3)c2c1=O` (single isomer, unassigned; (+)) [Example 020, (+)-4,4-difluoro-2-(4-fluorophenyl)-N-{4-[5-methyl-4-oxo-3-phenyl-7-(2,2,2-trifluoroethyl)-4,5-dihydro-1H-pyrrolo[3,2-c]pyridin-2-yl]pyridin-2-yl}butanamide]: the IC50 is above 20 µM.
Take `CC(C(=O)Nc1cc(-c2[nH]c3c(c2-c2ccccc2)C(=O)NCC3(C)C)ccn1)c1ccc(F)cc1` (single isomer, unassigned) [Example 048, N-[4-(7,7-dimethyl-4-oxo-3-phenyl-4,5,6,7-tetrahydro-1H-pyrrolo[3,2-c]pyridin-2-yl)pyridin-2-yl]-2-(4-fluorophenyl)propanamide]: the IC50 is above 20 µM.
With `CC1c2[nH]c(-c3ccnc(NC(=O)C(CC(F)F)c4ccc(F)cc4)c3)c(-c3ccccc3)c2C(=O)N(C)C1C` (stereo not drawn) [Example 041], the IC50 was above 20 µM.

The record behind these values is patent publication US20230322767A1, “ARYL SUBSTITUTED PYRROLO-PYRIDINONES AND THERAPEUTIC USES THEREOF” (Bayer Aktiengesellschaft, priority 2020, published 2023).
